Experimental data reported in the NIST ThermoML archive (doi:10.1016/j.jct.2013.09.006).
Numbers after ± are expanded uncertainties.

Experiments:
[1] = 101.33 kPa, Liquid; for viscosity: Capillary tube (Ostwald / Ubbelohde) method; for mass density: Vibrating tube method
[2] = refractive index (Na D-line) (dimensionless); settings: 101.33 kPa, Liquid, Standard Abbe refractometry

CCO [ethanol]
Settings	mass density, 298.15 K [kg/m3]	mass density, 303.15 K [kg/m3]	mass density, 308.15 K [kg/m3]	refractive index, 298.15 K	refractive index, 303.15 K	refractive index, 308.15 K	viscosity, 298.15 K [mPa·s]	viscosity, 303.15 K [mPa·s]	viscosity, 308.15 K [mPa·s]
[1]	785.9 ± 1.8	780.2 ± 1.8	776.5 ± 1.8	–	–	–	1.09 ± 0.02	0.95 ± 0.02	0.87 ± 0.02
[2]	–	–	–	1.3593 ± 0.0014	1.3573 ± 0.0014	1.3556 ± 0.0014	–	–	–
